Reference: the NIST ThermoML archive (doi:10.1016/j.fluid.2008.06.007)

Settings: Liquid, Vibrating tube method

CCCCCO [pentan-1-ol]
mass density [kg/m3]
Settings	293.15 K	303.15 K	313.15 K	323.15 K	333.15 K	343.15 K
100 kPa	814.7	807.3	799.8	792.5	784.4	776.5
10000 kPa	821.1	814.4	807.4	800.3	792.7	785.2
20000 kPa	827.3	820.7	814.1	807.3	800.1	792.9
30000 kPa	833.2	826.7	820.2	813.7	806.8	799.9
40000 kPa	838.6	832.2	826	819.8	813.1	806.6
50000 kPa	843.6	837.5	831.5	825.4	818.9	812.6
60000 kPa	848.5	842.4	836.6	830.7	824.4	818.3
70000 kPa	853.1	847	841.4	835.7	829.7	823.7
80000 kPa	857.4	851.6	846.1	840.4	834.6	828.7
90000 kPa	861.7	855.8	850.5	845	839.2	833.5
100000 kPa	865.8	860.1	854.8	849.3	843.7	838.2
110000 kPa	869.6	864.1	858.9	853.6	848	842.5
120000 kPa	873.2	868	862.8	857.6	852.1	846.8
130000 kPa	876.9	871.7	866.6	861.5	856	850.9
140000 kPa	880.3	875.2	870.2	865.3	860	854.8
